Source: patent US4150146A, “Process for the preparation of unsymmetrically 1,3-disubstituted nitroso ureas” (priority 1976, dated 1979)

Experiments:
rat leukaemia L 5222 = test: Chemotherapeutic activity against rat leukaemia L 5222 (cures); format: in vivo; conditions: for L 5222 cures %: 50% of the acute LD50 i.p., treatment on day 6 after transplantation of 5 × 10^6 cells, rats surviving 60 days after treatment considered cured
Text: (§1) The chemotherapeutic activity of Compounds 1 to 8 against rat leukaemia L 5222 and s.c. Walker carcinosarcoma is shown in the accompanying Table II, together with that of still another BCNU analog and of BCNU itself.
(§2) The chemotherapeutic activity of Compounds 1 to 8,
(§3) another analog of BCNU, and BCNU against rat leukaemia
(§4) L 5222 and s.c. Walker carcinosarcoma
(§5) ^1 50% of the acute LD50 were given i.p.
^2 Treatment on day 6 after transplantation of 5 × 10^6
^3 Rats surviving 60 days after treatment were considered cured.

[1] = tested on: s.c. Walker carcinosarcoma; test: Chemotherapeutic activity against s.c. Walker carcinosarcoma (tumor weight inhibition); format: in vivo, rat (Sprague Dawley); conditions: for s.c. Walker T.W.I.% (tumor weight inhibition): 50% of the acute LD50 i.p., treatment on day 4 after transplantation, T.W.I. on day 8, 10 Sprague Dawley rats per group
Text: as §1, §2, §3, §4, §5
^4 Treatment on day 4 after transplantation. Each group consisted of
10 Sprague Dawley vats.
^5 T.W.I. corresponds to tumor weight inhibition in % on day 8,?

Stability = format: physicochemical; conditions: liquid compounds
[2] = tested on: autochthonic DMBA-induced mammary carcinoma; test: Animal test against autochthonic DMBA-induced mammary carcinoma; format: in vivo, rat; conditions: in words; for activity against autochthonic DMBA-induced mammary carcinoma relative to Adriamycin / BCNU: comparison with Adriamycin (and BCNU)
Delayed toxicity = format: in vivo; conditions: contrary to BCNU; preliminary
[3] = Solubility in water (or tissue fluids); format: physicochemical; conditions: comparison with BCNU, in words

| SMILES | L 5222 cures % (rat leukaemia L 5222) | s.c. Walker T.W.I.% (tumor weight inhibition) [1] | other results |
| --- | --- | --- | --- |
| O=NN(CCCl)C(=O)NCCCl [BCNU, 1,3-bis-(2-chloroethyl)-1-nitroso urea, reference compound] | 70% | 83% | – |
| O=NN(CCCl)C(=O)NCCCCO [Compound 8, 1-(4-hydroxybutyl)-CNU] | 5% | 4% | stability (for elementary analysis) (Stability): not stable enough for elementary analysis |
| CS(=O)(=O)OCCNC(=O)N(CCCl)N=O [Compound 9] | – | – | activity against rat autochthonic DMBA-induced mammary carcinoma ([2]; animal test): excellent activity; activity against autochthonic DMBA-induced mammary carcinoma relative to Adriamycin / BCNU [2]: significantly exceeding that of "Adriamycin" |
| O=NN(CCCl)C(=O)NCCCCCCNC(=O)N(CCCl)N=O [Compound 5, 1,1'-hexamethylenebis-CNU] | 50% | 70% | – |
| O=NN(CCCl)C(=O)NCCCNC(=O)N(CCCl)N=O [Compound 2, 1,1'-propylenebis-CNU] | 60% | 72% | – |
| O=NN(CCCl)C(=O)NCCCO [Compound 7, 1-(3-hydroxypropyl)-CNU] | 10% | 0% | stability (for elementary analysis) (Stability): not stable enough for elementary analysis |
| NC(=O)CNC(=O)N(CCCl)N=O [Compound 10, 2-(3-(2-chloroethyl))-3-nitrosoureido acetamide] | – | – | delayed toxicity (Delayed toxicity): little delayed toxicity; activity against s.c. Walker carcinosarcoma relative to BCNU ([1]; preliminary animal test, comparison with BCNU): same activity against s.c. Walker carcinosarcoma as BCNU; activity against autochthonic DMBA-induced mammary carcinoma relative to Adriamycin / BCNU [2]: better activity than "Adriamycin" or BCNU; solubility in water relative to BCNU [3]: better solubility in water |
| Cc1ccc(NC(=O)N(CCCl)N=O)cc1NC(=O)N(CCCl)N=O [1,1'-(4-methyl-m-phenylene)bis-CNU] | 0% | 35% | – |
| O=NN(CCCl)C(=O)NCCCCCNC(=O)N(CCCl)N=O [Compound 4, 1,1'-pentamethylenebis-CNU] | 30% | 68% | – |
| O=NN(CCCl)C(=O)NCCNC(=O)N(CCCl)N=O [Compound 1, 1,1'-ethylenebis-CNU] | 60% | 75% | – |
| O=NN(CCCl)C(=O)NCCO [Compound 6, 1-(2-hydroxyethyl)-3-(2-chloroethyl)-3-nitroso urea] | 90% | 85% | chemotherapeutic activity against rat leukaemia L 5222 and s.c. Walker carcinosarcoma (in words) (rat leukaemia L 5222; summary of Table II, both tumor models): outstanding activity |
| O=NN(CCCl)C(=O)NCCCCNC(=O)N(CCCl)N=O [Compound 3, 1,1'-tetramethylenebis-CNU] | 75% | 77% | – |
